From patent US12043597B2, “Crystalline polymorphs of Rivoceranib and Rivoceranib mesylate” (ASSIA CHEMICAL INDUSTRIES LTD., priority 2018, dated 2024)

Experiment: Solid-state (polymorphic) stability of the crystalline form under humidity, temperature and mass pressure stress
Assay type: physicochemical
From the text: As used herein, the term “stable” in relation to crystalline Rivoceranib and Rivoceranib mesylate refers to less than 20%, less than 10%, less than 5%, less than 2%, less than 1%, or less than 0.5% conversion of crystalline Rivoceranib or Rivoceranib mesylate to any other solid state form of Rivoceranib or Rivoceranib mesylate, respectively.
As discussed above, depending on which other solid state it is compared with, Form RT2 of Rivoceranib according to the present disclosure may have advantageous properties as described above. Particularly, crystalline Form RT2 of Rivoceranib mesylate of the present disclosure is stable, for example upon exposure to high humidity or high temperature or high mass pressure conditions, such as 60° C./100% RH for up to 7 days or 80% RH at room temperature for 2 days, or under 100° C. for 60 minutes or under mass pressure of 2 ton for 1 minute.

stability upon exposure to high humidity and temperature (60° C./100% RH for up to 7 days): stable | stability upon exposure to high humidity (80% RH at room temperature for 2 days): stable | stability upon exposure to high temperature (100° C. for 60 minutes): stable | stability under high mass pressure (mass pressure of 2 ton for 1 minute): stable
SMILES: CS(=O)(=O)O.N#CC1(c2ccc(NC(=O)c3cccnc3NCc3ccncc3)cc2)CCCC1 [Form RT2, N-[4-(1-Cyanocyclopentyl)phenyl]-2-(pyridin-4-ylmethylamino)pyridine-3-carboxamide methanesulfonate]
